The results in this text go back to patent US8053627B2, “Methods for treating demyelination disorders” (University of Chicago, priority 2005, dated 2011).

The subject of one series is BIP, CHOP, p-eIF-2α. Put plainly: ER stress markers in corpus callosum during remyelination (real time PCR, Western blot). The format is in vivo. Conditions: DOX− mice. The procedure: Repression of remyelination by IFN-γ is associated with ER stress. […] To determine whether IFN-γ interferes with endoplasmic reticulum (ER) function in remyelinating oligodendrocytes, the expression of ER stress markers was monitored in the corpus callosum of mice expressing IFN-γ. The study was performed using the transgenic mice described in Example 1.
The level of mRNA encoding ER stress associated genes binding immunoglobulin protein/78 KDa glucose regulated protein (BIP/GRP78) and the CAATT enhancer-binding protein homologous protein/growth and DNA damage protein 153 (CHOP/GADD153), was determined using real time PCR, as described in Example 1 in the corpus callosum of the cuprizone treated mice of Example 1. The probes, sense and antisense primers that were used were: […]
The level of phosphorylated eIF-2α, which inhibits nucleotide exchange on the eIF-2 complex and attenuates most protein synthesis, was analyzed by Western blot, and the expression was colocalized by immunostaining CC1 antibodies as described above. Western blot analysis was performed as follows. The corpus callosum from 3 mice was rinsed in ice cold phosphate-buffered saline (PBS) and pooled, and immediately homogenized in 5 volumes of Triton X-100 buffer (20 mM HEPES pH 7.5, 150 mM NaCl, 1% Triton X-100, 10% glycerol, 1 mM EDTA, 10 mM tetrasodium pyrophosphate, 100 mM NaF, 17.5 mM β-glycerophosphate, 10 mM phenylmethylsulfonyl fluoride, 15 μg/ml aprotonin, and 6 μg/ml pepstatin A) using a motorized homogenizer. After incubation on ice for 15 min, the extracts were cleared by centrifugation at 14,000 rpm twice for 30 min each. The protein content of each extract was […] by protein assay (Bio-Rad). The extracts (40 μg) were separated by sodium dodecyl sulfate-polyacrylamide gel electrophoresis and transferred to nitrocellulose. […] The following primary antibodies were used: anti-eIF-2α (1:500; Santa Cruz, Santa Cruz, Calif.), anti-p-eIF-2α (1:1000, Cell signaling Technology), anti-CHOP (1:500; Santa Cruz) and anti-actin (1:1000; Sigma, St Louis, Mo.).
On the technique in general: In qPCR the cycle at which signal appears reflects the starting amount.

For series [1], the system named is myelinating oligodendrocytes in the CNS. In words: Ectopic CNS expression of IFN-γ during development (released from doxycycline at E14), wild-type or PERK+/− background. The format is in vivo, mice. An excerpt:
To study the effect of INF-γ on the myelination of oligodendrocytes during mouse development, transgenic mice that allow for temporally regulated delivery of IFN-γ to the CNS using the tetracycline (tet) controllable system (Lin, et al. (2004) J. Neurosci. 24: 10074-10083) were generated. To drive tTA expression in astrocytes, the transcriptional regulatory region of the glial fibrillary acidic protein (GFAP) gene was chosen (Brenner, et al. (1994) J. Neurosci. 14: 1030-1037). GFAP/tTA mice were mated with TRE/IFN-γ mice to produce animals hemizygous for both transgenes. When these mice are maintained on doxycycline (DOX+), expression of the IFN-γ transgene is repressed (FIG. 10A); when the double transgenic mice are released from doxycycline (DOX−) INF-γ is expressed. For the purpose of these experiments, mice received doxycycline up to day 14 of development (E14), at which time the experimental animals (DOX−) stopped receiving doxycycline, while the control animals (DOX+) were continuously fed the dug. The mRNA for IFN-γ could be detected in the DOX− mice as early as 10 days after birth (data not shown).
Real time PCR analysis was performed to determine the levels of expression of INF-γ, MHC-1, BIP, CHOP, and caspase 12. The primers for the PCR reactions for BIP, CHP and caspase 12 are given in example 1. The sense and antisense primers for INF-γ were […] (SEQ ID NO: 39) and […] (SEQ ID NO: 40), respectively; and the sense and antisense primers for MHC-1 were MHC-I sense primer: ATTCCCCAAAGGCCCATGT (SEQ ID NO: 1); and MHC-I antisense primer: […] (SEQ ID NO: 2).
Western blot analysis was performed on the CNS of 14 day old mice to determine the expression of caspase-12 as described in Example 6.
Brain and spinal cord tissue were analyzed using immunohistochemical methods as follows. Anesthetized mice were perfused through the left cardiac ventricle with 4% paraformaldehyde in 0.1M PBS. The half-saggital brains and transcervical spinal cord were removed, postfixed with paraformaldehyde, cryopreserved in 30% sucrose, embedded in OCT and frozen on dry ice. Frozen sections were cut in a cryostat at a thickness of 10 μm. Coronal sections at the fornix region of the corpus callosum corresponding to Sidman sections 241-251 were selected for use, and all comparative analyses were restricted to midline corpus callosum (Sidman, et al. (1971) Atlas of the Mouse Brain and Spinal Cord (Harvard Univ. Press, Cambridge, Mass.). For immunohistochemistry, frozen sections were treated with −20° C. acetone, blocked with PBS containing 10% NGS and 0.1% Triton X-100 and incubated overnight with the primary antibody diluted in blocking solution. Appropriate fluorochrome- or enzyme-labeled secondary antibodies (Vector Laboratories, Burlingame, Calif.) were used for detection. An antibody against CC1 (APC7, 1:50; EMD Biosciences, Inc., La Jolla, Calif.) was used as a marker for mature oligodendrocytes. Antibody against MBP (1:1000; Sternberger Monoclonals, Lutherville, Mass.) was used to verify the degree of myelination. Antibody against active-caspase-3 (1:50, Cell signaling Technology, Beverly, Mass.) was used as a marker for apoptotic cells. Fluorescent stained sections were mounted with Vectashield mounting medium with DAPI (Vector Laboratories) and visualized with a Zeiss Axioplan fluorescence microscope. Images were captured using a Photometrics PXL CCD camera connected to an Apple Macintosh computer using the Open Lab software suite. Immunopositive cells were quantified by counting positive cells within the median of the corpus callosum, confined to an area of 0.04 mm^2. Only those cells with nuclei observable by DAPI staining were counted. Each MBP immunostaining slide was scored on a scale of zero to four. A score of zero indicates complete demyelination, and a score of four indicates normal myelination in the corpus callosum of adult mice. […]

Series [2] relates to oligodendrocytes in adult mice. In words: IFN-γ expression in the CNS of adult mice (released from doxycycline at 4 weeks of age). In kind it is in vivo. An excerpt:
Compared with the actively myelinating oligodendrocytes of young growing animals, oligodendrocytes in adult mice produce lower levels of membrane proteins and lipids, just enough to maintain homeostasis in the myelin structure (Morell, et al. (1999) Basic Neurochemistry: Molecular, Cellular, and Medical Aspects (Philadelphia, Pa.: Lippincott-Raven Publishers): 69-93). The ER of oligodendrocytes in adult animals may thus have more spare capacity to process increased protein load and as such may be less sensitive to disruptions of the protein secretory pathway. To examine this possibility, double transgenic mice were allowed to develop to maturity, at which time IFN-γ expression in the CNS was initiated.

[3] abbreviates: PERK+/− background, released from doxycycline at E14.
The mark [4] stands for this setting: wild-type background, released from doxycycline at E14.

For “IFN-γ: pleotropic cytokine secreted by activated T lymphocytes and natural killer cells; delivered to the CNS by transgene or added as recombinant protein”, in the series with BIP, CHOP, p-eIF-2α, the “BIP mRNA increase vs control DOX+” value is listed as “approximately 2 fold”, the “CHOP mRNA increase vs control DOX+” value is listed as “approximately 2 fold”, the “CHOP protein elevation (Western blot)” value is reported as “approximately 1.7 fold” and the “phosphorylated eIF-2α elevation (Western blot)” value is listed as “approximately 1.8 fold”. In series [1] (CNS, PND 14, DOX− from E14), the “BIP expression relative to control levels” value is on record as “approximately 1.6 times”, the “CHOP expression relative to control levels” value is approximately 2 times and the caspase-12 expression entry is on record as “strongly enhanced”. Moreover, the state of myelination entry in series [1] (DOX− double transgenic mice, wild-type background) is listed as “mildly hypomyelinated”. Further, the “decrease of oligodendrocyte numbers in the spinal cord (CC1)” value in series [1] (PERK+/− background, 14-day-old) is given as “more than 50%”. Moreover, in series [1] (setting [3]), the “mice that died by post natal day (PND) 27” value was “more than 90%” and the “mice that experienced tonic seizures” value was “approximately two-thirds”. Moreover, in series [1] (PERK+/− mice expressing IFN-γ, 14-day-old), the “unmyelinated axons in the spinal cord” value is 81%±14.9%. For the same substance, the “TUNEL positive oligodendrocytes in the cervical spinal cord, PERK+/− relative to wild-type background” value in series [1] (released from doxycycline at E 14) is given as 2.5 times. For the same substance, in series [1] (setting [4]), the survival entry is “normal survival” and the “unmyelinated axons in the spinal cord” value is 30%±12.9%. In addition, the “BIP and CHOP in the cerebellum” value in series [2] (10-week-old double transgenic mice) is given as “modest induction”. In addition, the “myelin in the CNS (ultrastructural examination)” value in series [2] (10-week-old, wild-type or PERK+/− background) is given as “normal myelin”. Further, the oligodendrocyte survival result in series [2] (adult mice, also PERK+/− background) is reported as “did not affect”.
